Test results from ChEMBL document CHEMBL1159244, “New polyoxypregnane ester derivatives from Leptadenia hastata” (J Nat Prod, 1995).
Calls of active or inactive are those of the source. The calls are words filed in the database; no cut-off is given here.

What was measured:
Raji [1] = assay: Cytotoxicity against human Raji cells assessed as [methyl-3H]thymidine incorporation into DNA at 0.5 ug/ml after 24 hrs; format: functional, cell-based
Raji [2] = assay: Cytotoxicity against human Raji cells assessed as [methyl-3H]thymidine incorporation into DNA at 1 ug/ml after 24 hrs; format: functional, cell-based

| SMILES | Activity (Raji [1]) | Activity (Raji [2]) |
| --- | --- | --- |
| CC(=O)[C@]1(O)CC[C@@]2(O)[C@]1(C)[C@H](OC(=O)c1cccnc1)C[C@@H]1[C@@]3(C)CC[C@H](O)CC3=CC[C@]12O | inactive | inactive |
| C[C@H](OC(=O)c1ccccc1)[C@]1(O)CC[C@@]2(O)[C@]1(C)[C@H](OC(=O)c1ccccc1)C[C@@H]1[C@@]3(C)CC[C@H](O)CC3=CC[C@]12O | inactive | inactive |
| CC(=O)O[C@@H](C)[C@]1(O)CC[C@@]2(O)[C@]1(C)[C@H](OC(=O)/C=C/c1ccccc1)C[C@@H]1[C@@]3(C)CC[C@H](O)CC3=CC[C@]12O | inactive | inactive |
| CC(=O)O[C@@H](C)[C@]1(O)CC[C@@]2(O)[C@]1(C)[C@H](OC(=O)c1cccnc1)C[C@@H]1[C@@]3(C)CC[C@H](O)CC3=CC[C@]12O | inactive | inactive |
| CC(=O)[C@]1(O)CC[C@@]2(O)[C@]1(C)[C@H](OC(=O)c1ccccc1)C[C@@H]1[C@@]3(C)CC[C@H](O)CC3=CC[C@]12O | inactive | inactive |
| CO[C@H]1C[C@H](O[C@H]2CC[C@@]3(C)C(=CC[C@]4(O)[C@@H]3C[C@@H](OC(=O)c3ccccc3)[C@@]3(C)[C@]4(O)CC[C@@]3(O)[C@H](C)OC(=O)/C=C/c3ccccc3)C2)O[C@H](C)[C@H]1O | inactive | inactive |
| CO[C@H]1C[C@H](O[C@H]2CC[C@@]3(C)C(=CC[C@]4(O)[C@@H]3C[C@@H](OC(=O)c3ccccc3)[C@@]3(C)[C@]4(O)CC[C@@]3(O)[C@H](C)OC(=O)/C=C/c3ccccc3)C2)O[C@H](C)[C@H]1O[C@H]1C[C@@H](OC)[C@H](O)[C@@H](C)O1 | inactive | inactive |
| CC(=O)O[C@@H]1C[C@@H]2[C@@]3(C)CC[C@H](O)CC3=CC[C@@]2(O)[C@@]2(O)CC[C@@](O)([C@H](C)O)[C@@]12C | inactive | inactive |
| C[C@H](OC(=O)/C=C/c1ccccc1)[C@]1(O)CC[C@@]2(O)[C@]1(C)[C@H](OC(=O)c1ccccc1)C[C@@H]1[C@@]3(C)CC[C@H](O)CC3=CC[C@]12O | inactive | inactive |
| C[C@H](OC(=O)c1cccnc1)[C@]1(O)CC[C@@]2(O)[C@]1(C)[C@H](OC(=O)/C=C/c1ccccc1)C[C@@H]1[C@@]3(C)CC[C@H](O)CC3=CC[C@]12O | inactive | inactive |
| CC(=O)[C@]1(O)CC[C@@]2(O)[C@]1(C)[C@H](OC(=O)/C=C/c1ccccc1)C[C@@H]1[C@@]3(C)CC[C@H](O)CC3=CC[C@]12O | inactive | inactive |
| C[C@H](O)[C@]1(O)CC[C@@]2(O)[C@]1(C)[C@H](OC(=O)/C=C/c1ccccc1)C[C@@H]1[C@@]3(C)CC[C@H](O)CC3=CC[C@]12O | inactive | inactive |
| CO[C@H]1C[C@H](O[C@H]2CC[C@@]3(C)C(=CC[C@]4(O)[C@@H]3C[C@@H](OC(=O)/C=C/c3ccccc3)[C@@]3(C)[C@]4(O)CC[C@@]3(O)[C@H](C)O)C2)O[C@H](C)[C@H]1O[C@H]1C[C@@H](OC)[C@H](O)[C@@H](C)O1 | inactive | inactive |
| CC(=O)O[C@@H]1C[C@@H]2[C@@]3(C)CC[C@H](O)CC3=CC[C@@]2(O)[C@@]2(O)CC[C@@](O)(C(C)=O)[C@@]12C | inactive | inactive |
